According to ChEMBL document CHEMBL3832067, “DailyMed|setid=d28bec8f-762e-4f05-a20d-96a42970d6a7 | Estradiol - estradiol patch|Mylan Pharmaceuticals Inc”:

Experiments:
[1] = (§1) Evaluation of pharmacokinetic parameters for Estradiol after multiple topical applying Estradiol transdermal systems to the abdomen or the buttocks of 17 healthy, postmenopausal female subjects.; type: ADME, organism-based; design: dose 0.075 mg/day, dose 0.1 mg/day, dose 0.0375 mg/day, dose 0.05 mg/day, route topical to abdomen, route topical to buttocks; settings: human, in vivo, topical or ocular; dose 0.05 mg/day, dosed compound id 17, dosed compound name ESTRADIOL, gender female, regimen Multiple dose, route topical to abdomen, tissue Plasma; read-out: Cmin(80hr)
Homo sapiens = test: as §1; type: ADME, organism-based; design: dose 0.075 mg/day, dose 0.1 mg/day, dose 0.0375 mg/day, dose 0.05 mg/day, route topical to abdomen, route topical to buttocks; settings: in vivo, topical_or_ocular, dosed compound id 17, dosed compound name ESTRADIOL, gender female, regimen Multiple dose, tissue Plasma
[2] = dose 0.0375 mg/day, route topical to abdomen
[3] = dose 0.075 mg/day, route topical to abdomen
[4] = dose 0.1 mg/day, route topical to abdomen
[5] = dose 0.1 mg/day, route topical to buttocks

C[C@]12CC[C@@H]3c4ccc(O)cc4CC[C@H]3[C@@H]1CC[C@@H]2O [ESTRADIOL]
concentration at 80 h [1]: 0.041 ng/mL | Cavg (Homo sapiens; [2]): 0.034 ng/mL | Cmin(84hr) (Homo sapiens; [2]): 0.03 ng/mL | Cavg (Homo sapiens; dose 0.05 mg/day, route topical to abdomen): 0.057 ng/mL | Cavg (Homo sapiens; [3]): 0.072 ng/mL | Cmin(84hr) (Homo sapiens; [3]): 0.06 ng/mL | Cavg (Homo sapiens; [4]): 0.089 ng/mL | Cmin(84hr) (Homo sapiens; [4]): 0.09 ng/mL | Cavg (Homo sapiens; [5]): 0.104 ng/mL | Cmin(84hr) (Homo sapiens; [5]): 0.085 ng/mL
